Test results taken from patent publication US20230248814A1, “COMPOSITIONS AND METHODS FOR TREATING MERKEL CELL CARCINOMA (MCC) USING HLA CLASS I SPECIFIC EPITOPES” (The Broad Institute, Inc., priority 2020, published 2023).
“Also recorded” adds a separate entry of the source.

Legend:
Type in all cases: cell-based, human
[1] = system: MKL-1 cells; experiment: USP7 inhibitor flow cytometry for surface HLA-I in MKL-1 p53-WT control and p53-KO lines; conditions: MKL-1 TP53-KO and TP53-WT lines; 100 nM
Experimental: For MKL-1 USP7 inhibitor experiments, p53-WT control lines (WT, scrambled, AAVS1) and three p53-KO lines were treated with USP7 inhibitors and assessed by flow cytometry for surface HLA I as described above for MCC-301.

[2] = system: MCC-301 cells; experiment: HLA-I-bound peptidome (TMT LC-MS/MS) of USP7 inhibitor treated MCC-301 cells
Experimental: Immunopeptidomes of USP7 inhibitor treated cell lines were eluted as described above, followed by labeling with TMT6 reagent (Thermo Fisher; 126-USP7iA, 127-WT, 128 USP7iA, 129 WT, 130-USP7iB, 131 USP7iB) and then pooled for subsequent fractionation using basic reversed phase fractionation with increasing concentrations of acetonitrile (10%, 15% and 50%) in 5 mM ammonium formate (pH 10) and analysis on an Orbitrap Exploris 480 with FAIMSpro. Data acquisition parameters were as above with NCE set to 34 and 2 second dynamic exclusion.
Mass spectra were interpreted using Spectrum Mill software package v7.1 pre-Release (Broad Institute, Cambridge, MA). […] Merging of similar spectra with the same precursor m/z acquired in the same chromatographic peak was disabled. MS/MS spectra were searched against a protein sequence database that contained 90,904 entries, including all UCSC Genome Browser genes with hg19 annotation of the genome and its protein coding transcripts (52,788 entries), common human virus sequences (30,181 entries), recurrently mutated proteins observed in tumors from 26 tissues (4,595 entries), 264 common laboratory contaminants as well as protein sequences containing somatic mutations detected in MCC cell lines (3,076 entries). MS/MS search parameters included: no-enzyme specificity; ESI-QEXACTIVE-HCD-HLA-v3 instrument scoring; fixed modification: […]; variable modifications: oxidation of methionine, carbamidomethylation of cysteine and pyroglutamic acid at peptide N-terminal glutamine; precursor mass tolerance of ±10 ppm; product mass tolerance of ±10 ppm, and a minimum matched peak intensity of 30%. Peptide spectrum matches (PSMs) for individual spectra were automatically designated as confidently assigned using the Spectrum Mill auto-validation module to apply target-decoy based FDR estimation at the PSM level of <1% FDR. Peptide auto-validation was done separately for each sample with an auto thresholds strategy to optimize score and delta Rank1 - Rank2 score thresholds separately for each precursor charge state (1 through 4) across all LC-MS/MS runs per sample. […] Peptide and PSM exports were filtered for contaminants including potential carry over tryptic peptides and peptides identified in a blank bead sample. For TMT-labeled samples, peptides derived from keratin proteins were removed and TMT intensity values were normalized to the global median. P-values were calculated using in house software based on the limma package in R.

[3] = system: MCC lines (MCC-301, -277, -290, -320); experiment: USP7 inhibitor experiments: flow cytometry for surface HLA-I in MCC lines
[4] = system: MKL-1 cells; experiment: Cell cycle analysis (EdU/DAPI flow cytometry) of MKL-1 control or p53 KO cells; conditions: MKL-1 TP53-WT and TP53-KO; 100 nM; three days
Experimental: Cell cycle analysis. 1 million MKL-1 control or p53 KO cells were plated and treated with DMSO, XL177A (100 nM) or XL177B (100 nM) for three days. During the last hour of the three- day treatment, the cells were pulsed with 10 µM EdU nucleotide. The cells were collected by centrifugation, treated with Accutase™ (Stem Cell Technologies) to break apart clumps, washed with PBS and fixed using 4% Formaldehyde solution in PBS at Room temperature for 15 mins. Cells were washed with 1% BSA in PBS and resuspended in 70% ice cold ethanol and incubated at -20° C. overnight for additional fixing and permeabilization. The cells were stored in 70% ethanol at -20° C. until the day the data was acquired. On the day of data acquisition, the cells were collected by centrifugation and washed twice with PBS. The incorporated EdU in the cells were labeled with a CLICK reaction cocktail (1 mM CuSO4, 100 µM THPTA, 100 mM sodium ascorbate, and 2.2 µM Alexa 647 azide in PBS) at room temperature with rocking for 30 minutes. The samples were then washed with 1% BSA in PBS once followed by two washes with PBS and incubated with a 1 µg/ml DAPI, 100 ng/ml RNase A solution for one hour at Room temperature to stain the DNA. The samples were then passed through strainer tubes and analyzed using a BD Fortessa analyzer. The flow cytometry data was analyzed using the FlowJo Software. […]

[5] = system: MCC lines; experiment: Flow cytometry for HLA-I surface expression in MCC lines after interferon treatment
Experimental: (§1) Flow cytometry. Cells were dissociated with Versene and incubated with 5 µL Human TruStain FcX (Fc Receptor Blocking Solution; Biolegend # 422302) per million cells in 100 µL at room temperature for 10 min. Fluorophore-conjugated antibodies or respective isotype controls were added and incubated for another 30 min at 4° C. Cells were then washed once with PBS and resuspended in PBS or 4% paraformaldehyde and analyzed on an LSR Fortessa cytometer. For HLA-I and HLA-II detection, the following antibodies were used: HLA-ABC (W6/32 clone) conjugated to PE (BioLegend # 311406), APC (BioLegend # 311410), or AF647 (Santa Cruz Biotechnology # sc32235 AF647), and HLA-DR-FITC (BioLegend # 307604).

[6] = system: MCC lines; experiment: RNA-seq of class I antigen presentation genes in MCC lines before and after IFN-γ; conditions: IFN-γ treatment vs baseline
Experimental: RNA sequencing and analysis. For samples from the MCC tumors and newly generated cell lines, RNA was first assessed for quality using the Agilent Bioanalyzer (DV200 metric). 100 ng of RNA were used as the input for first strand cDNA synthesis using Superscript III reverse transcriptase and Illumina’s TruSeq RNA Access Sample Prep Kit. Synthesis of the second strand of cDNA was followed by indexed adapter ligation with UMI (unique molecular index) adaptors. Subsequent PCR amplification enriched for adapted fragments. Amplified libraries were quantified, normalized, pooled, and hybridized with exome targeting oligos. Following hybridization, bead clean-up, elution, and PCR was performed to prepare library pools for sequencing on Illumina flowcell lanes. Transcriptomes were sequenced to a coverage of at least 50 million reads in pairs.
Gene counts were obtained from BAM files using featureCounts version 2.0.0 (74). Very lowly expressed genes with average count across samples less than 1 were excluded from analysis. […]
Differential expression analysis was carried out between IFN-γ plus and minus samples (adjusting for viral status as a covariate) using the negative binomial GLM Wald test of DESeq2, where significance was assessed using the p-values adjusted for multiple comparisons under default settings. […]

[7] = system: MCC-301 cell line; experiment: Flow cytometry assessment of HLA-DR expression after IFN-γ
Experimental: as §1

[8] = system: MCC cell lines; experiment: HLA-I immunopeptidome (LC-MS/MS) of MCC cell lines at baseline and after IFN-γ; conditions: for increase in abundance of class I bound peptides (median): IFN-γ stimulation
Experimental: Immunoprecipitation and mass spectrometry analysis, and peptide identification. Up to 40 million or 0.2 g of MCC cells were immunoprecipitated. Briefly, MCC cells were harvested and lysed in ice-cold lysis buffer containing […] (pH 8.0), 1 mM EDTA (pH 8.0), 0.1 M sodium chloride, Triton X-100, 0.06 M octyl β-d-glucopyranoside, 100 U/mL DNAse I, 1 mM phenylmethanesulfonyl fluoride (all from Sigma Aldrich), and protease inhibitor cocktail (Roche Diagnostics). Cell lysate was centrifuged at 12,700 rpm at 4° C. for 22 min. Lysate supernatant was coupled with Gammabind Plus sepharose beads (GE Healthcare) and incubated with 10 µg of HLA-I antibody (Clone W6/32, Santa Cruz Biotechnologies) at 4° C. under rotary agitation for 3 h. After incubation, the lysate-bead-antibody mixture was briefly centrifuged and the supernatant was discarded. Beads were washed with lysis buffer, consisting of wash buffer containing 40 mM Tris (pH 8.0), 1 mM EDTA (pH 8.0), 0.1 M sodium chloride, 0.06 M octyl β-d-glucopyranoside, and 20 mM Tris buffer, without protease inhibitors. Gel loading tips (Fisherbrand) were used to remove as much fluid from beads as possible. Peptides of up to three immunoprecipitations were combined, acid eluted, and analyzed using LC/MS-MS as described previously (35, 82). Briefly, peptides were resuspended in 3% acetonitrile with 5% formic acid and loaded onto an analytical column (20-30 cm with 1.9 µm C18 Reprosil beads, Dr. Maisch HPLC GmbH);, packed in-house). Peptides were eluted in a 6-30% gradient (EasyLC 1000 or 1200, Thermo Fisher Scientific) and analyzed on a QExactive Plus, Fusion Lumos, or Orbitrap Exploris 480 (Thermo Fisher Scientific). For Lumos measurements, peptides were also subjected to fragmentation if they were singly charged. […] Fractions were analyzed on a Fusion Lumos or Orbitrap Exploris 480 equipped with a FAIMSpro interface (83).
Mass spectra were interpreted using Spectrum Mill software package v7.1 pre-Release (Broad Institute, Cambridge, MA). […] MS/MS spectra were searched against a protein sequence database that contained 90,904 entries, including all UCSC Genome Browser genes with hg19 annotation of the genome and its protein coding transcripts (52,788 entries), common human virus sequences (30,181 entries), recurrently mutated proteins observed in tumors from 26 tissues (4,595 entries), 264 common laboratory contaminants as well as protein sequences containing somatic mutations detected in MCC cell lines (3,076 entries). […]

[9] = system: PBMCs from patient MCC-367; experiment: IFN-γ ELISpot with autologous PBMCs of patient MCC-367; conditions: 10 ug/ml peptide
Experimental: ELISpot. Matching patient peripheral blood mononuclear cells (PBMCs) from patient MCC-367 were thawed, and 10^7 cells per well were seeded in 24 well plates overnight. Cells were stimulated with 10 ug/ml of the LT antigen peptide […] (SEQ ID NO:1) (identified in the MCC-367 HLA peptidome, FIG. 3F) in complete DMEM supplemented with 10% Human serum and 20 ng/ml IL-7 (PeproTech). After 3 days of stimulation, cells were supplemented with 20 units/mL IL-2 (PeproTech). After 10 days of stimulation, cells were cytokine deprived overnight. 50,000 cells per well were stimulated in an IFN- γ ELISpot assay with 10 ug/ml of the […] (SEQ ID NO:1) peptide. DMSO and an HIV-GAG peptide were used as negative controls. CEF (Mabtech) and PHA (Sigma Aldrich) were used as positive controls (not shown). ELISpot and T cell culture methods were described in detail previously (23, 86).

[10] = 100 nM, 3 days, two MCPyV+ lines (MCC-301, -277)
[11] = IFN-γ, 8 IFN-γ-inducible MCC lines

CN1CCN(CCC(=O)Nc2ccc3c(=O)n(CC4(O)CCN(C(=O)[C@@H](CCCNC(=O)c5ccc6c(Cl)c7c(nc6c5)CCCC7)Cc5ccccc5)CC4)cnc3c2)CC1 [XL177A]
surface HLA-I relative to XL177B and DMSO [1]: increased surface HLA-I | abundances of HLA-I displayed peptides compared to XL177B and untreated cells [2]: higher abundances of displayed peptides | frequency of peptides displayed on each HLA-I gene (HLA-A, -B, -C) [2]: did not affect | peptides more abundant than in untreated cells, out of 282 significantly differing (P < 0.05) [2]: 270 peptides | share of the 282 significantly differing peptides more abundant than in untreated cells [2]: 95.7% | increase in expression of surface HLA-I relative to DMSO (mean) [3, 10]: 2.0 fold | increase in expression of surface HLA-I relative to DMSO (range) [3, 10]: 1.78 - 2.27 fold | increase in MFI (HLA-ABC) by flow cytometry ([3]; MCC-301, 100 nM, 4 days): greater than twofold increase | HLA-I levels ([3]; MCPyV- line MCC-290, 3 days): more modest increase in HLA-I levels | HLA-I levels ([3]; MCPyV- line MCC-320, 3 days): but not MCC-320 | cell cycle phase distribution [4]: slight cell cycle shifts from S to G1 phase

IFN-γ: known inducer of HLA-I
HLA-I fold increase in MFI ([5]; IFN-γ exposure, MCC-336, -350, -358): ≤ 1.15 fold | HLA I surface expression, fold increase by MFI (median) [5, 11]: 5.7 fold | HLA I surface expression, fold increase by MFI (range) [5, 11]: 2.5 - 12.4 fold | response of HLA I surface expression to IFN-γ exposure ([5]; MCC-336, -350, -358): not responsive | class I gene expression (RNA-seq) [6]: markedly upregulated class I genes; also recorded: markedly upregulated class I gene transcripts | HLA-DR expression [7]: inducible HLA-DR expression; also recorded: upregulated HLA-DR expression | increase in abundance of class I bound peptides (median) ([8]; across 4 cell lines): 25 fold | increase in abundance of class I bound peptides (median) ([8]; across 7 cell lines, comparable input material): 12 fold | change in frequencies of peptides mapping to each HLA allele ([8]; cell lines with vs without IFN-γ): increase in HLA-B-presented peptides

TSDKAIELY
reactivity of autologous T cells (IFN-γ ELISpot) [9]: confirmed reactivity | detection of the epitope in the HLA-I peptidome ([8]; MCC-367 line, baseline vs IFN-γ): detected only after IFN-γ treatment and not at baseline
